Laboratory results: PMC7822861, “A functional family of fluorescent nucleotide analogues to investigate actin dynamics and energetics” (Nature Communications, 2021)

Biological target: T1, actin (G-actin, rabbit muscle) (Oryctolagus cuniculus, UniProt P68135)
T1 construct: gene ACTA1; rabbit muscle actin monomer; with mouse twinfilin C-terminal ADF-H domain (residues 176–316), in the crystal only
Test: co-crystal structure ([…] Å); fluorescence anisotropy association/dissociation kinetics
Assay type: binding

## ATP-ATTO-488
  k-: ~ (1 ± 0.4) × 10^−3 (k−) s^−1
